Data published in US9593149B2, “Amylin and calcitonin receptor agonist” (Novo Nordisk A/S, priority 2014, dated 2017).
Numbered stars: 1 amine (or outer) side, 2 acyl side, 3 side chain; on linkers, the order of the positions; unused ones are H or OH. Side chains are listed from the residue outwards. Peptide text beside a SMILES is read from it. * marks the point of attachment. C20 diacid = O=C(O)CCCCCCCCCCCCCCCCCCC(=O)*; C18 diacid = O=C(O)CCCCCCCCCCCCCCCCC(=O)*; γGlu = O=C(O)[C@H](CCC(=O)[*:2])N[*:1]

How the values were obtained:
[1] = biological target: T1, human calcitonin (a) receptor, BHK570 cells (Homo sapiens, UniProt P30988); test: Assay (II)a functional CRE-luciferase assay with albumin, human calcitonin receptor; type: cell-based; conditions: Tested with HSA; read-out: hCTR funct. EC50
T1 construct: host or cells: BHK570
T1 sequence (P30988 25-474): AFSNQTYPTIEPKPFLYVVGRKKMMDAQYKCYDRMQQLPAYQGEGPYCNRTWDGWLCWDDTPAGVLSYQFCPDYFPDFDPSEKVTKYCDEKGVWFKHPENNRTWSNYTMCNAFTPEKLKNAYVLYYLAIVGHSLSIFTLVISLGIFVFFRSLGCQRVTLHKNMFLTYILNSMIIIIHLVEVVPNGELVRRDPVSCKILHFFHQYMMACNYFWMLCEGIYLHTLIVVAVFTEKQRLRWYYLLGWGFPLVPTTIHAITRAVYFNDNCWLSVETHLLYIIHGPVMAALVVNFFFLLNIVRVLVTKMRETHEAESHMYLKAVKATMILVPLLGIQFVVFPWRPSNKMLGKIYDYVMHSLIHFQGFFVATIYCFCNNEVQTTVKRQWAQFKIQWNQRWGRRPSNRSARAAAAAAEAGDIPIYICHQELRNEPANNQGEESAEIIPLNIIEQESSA
In short: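 BHK570 cells stably carry a CRE-luciferase reporter and the calcitonin receptor; co-transfected RAMP-3 gives the amylin 3(a) receptor line. Cells were treated for 3 h at 37 °C in DMEM with 10% FBS and 10 mM Hepes, pH 7.4. cAMP-driven luciferase was read by LucLite luminescence after 30 min at RT.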

[2] = biological target: T2, human calcitonin receptor (Homo sapiens, UniProt P30988); test: Assay (VII) binding to the human calcitonin receptor (membrane, SPA); conditions: membranes, 125I-Calcitonin; read-out: hCT-R binding IC50
T2 construct: expressed in transfected cells; host or cells: BHK tk'ts 13
T2 sequence (P30988 25-474): T1 sequence (P30988 25-474)
Protocol: Assay (VII)—Determination of Binding to the Human Calcitonin Receptor (Membrane)
The binding assay was performed using scintillation proximity assay (SPA) beads (RPNQ0001) from PerkinElmer® and cell membranes prepared from a BHK tk'ts 13 cell line was stably transfected with the human calcitonin receptor and a CRE-responsive luciferase reporter gene. Membranes were prepared in the following way; the cells were rinsed with PBS and incubated with Versene for approximately 5 min before harvesting. The cells were flushed with PBS and the cell-suspension was centrifuged for 5 min at 1000 rpm. Cells were homogenized in a buffer containing 20 mM Na-HEPES and 10 mM EDTA (pH 7.4) and centrifuged at 20.000 rpm for 15 min. The resulting pellet was resuspended, homogenized and centrifuged (20.000 rpm, 15 min) in a buffer containing 20 mM Na-HEPES and 0.1 mM EDTA (pH 7.4, buffer 2). The resulting pellet was resuspended in buffer 2 and protein concentration was tested (BCA protein Assay, Pierce). The homogenate was kept cold during the whole procedure. The membranes were kept at −80° C. until use. Assay was performed in a 384 well Optiplate (PerkinElmer®) in a total volume of 40 ul. Membranes were mixed with SPA beads. Final concentration of membranes 35 ng/μL final and Final concentration of SPA beads was 0.05 mg/well. Test-compounds were dissolved in DMSO and further diluted in assay buffer (50 mM Hepes, pH 7.4, 1 mM CaCl2, 5 mM MgCl2, 0.1% OA and 0.02% Tween20). Radioligand ^125I-Calcitonin was dissolved in assay buffer and added to the Optiplate at a final concentration of 75 pM/well (approx. 30.000 cpm/10 ul). The final mixture was incubated for 120 min with shaking at 400 rpm at 25° C. prior to centrifugation (1500 rpm, 10 min). Samples were analyzed on TopCounter™ (Packard). The IC50 was calculated using (one site binding competition analysis) GraphPad Prism5 as a measure of receptor affinity.

[3] = biological target: T3, rat calcitonin receptor (Rattus norvegicus, UniProt P32214); test: Assay (VIII) binding to the rat calcitonin receptor; conditions: membranes; read-out: rCT-R binding IC50
T3 construct: expressed in transfected cells; host or cells: BHK tk'ts 13 (transient, FuGENE 6)
T3 sequence (P32214 25-479 isoform P32214-2 limits assumed): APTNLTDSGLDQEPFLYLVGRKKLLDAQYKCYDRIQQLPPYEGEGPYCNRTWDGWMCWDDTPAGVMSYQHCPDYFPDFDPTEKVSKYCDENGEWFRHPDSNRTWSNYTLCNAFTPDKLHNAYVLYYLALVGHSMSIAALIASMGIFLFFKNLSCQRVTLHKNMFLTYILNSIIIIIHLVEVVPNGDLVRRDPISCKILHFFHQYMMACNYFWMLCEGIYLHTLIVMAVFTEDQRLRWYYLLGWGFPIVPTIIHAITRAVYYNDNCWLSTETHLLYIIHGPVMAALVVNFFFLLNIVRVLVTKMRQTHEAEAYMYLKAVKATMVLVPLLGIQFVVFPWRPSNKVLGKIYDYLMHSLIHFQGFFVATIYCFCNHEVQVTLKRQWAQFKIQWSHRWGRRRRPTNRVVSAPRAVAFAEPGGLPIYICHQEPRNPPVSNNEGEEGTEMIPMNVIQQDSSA
In short: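 Competition binding on membranes from BHK tk'ts 13 cells transiently transfected with rat calcitonin receptor, otherwise run as the human receptor assay. Plates washed in cold HBSS, lysed in 0.1 M NaOH/1% SDS and scintillation-counted. IC50 from one-site competition fit as affinity measure.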

| EC50 [1] | IC50 [2] | IC50 [3] | SMILES |
| --- | --- | --- | --- |
| 0.051 nM | 0.108 nM | 0.044 nM | CC(C)C[C@H](NC(=O)[C@H](C)NC(=O)[C@H](C)NC(=O)[C@@H](NC(=O)[C@H](CO)NC(=O)[C@H](CC(C)C)NC(=O)[C@H](CCC(=O)O)NC(=O)[C@H](CO)NC(=O)[C@H](C)NC(=O)[C@H](C)NC(=O)CC[C@H](NC(=O)CCCCCCCCCCCCCCCCCCC(=O)O)C(=O)O)[C@@H](C)O)C(=O)NCC(=O)N[C@@H](CCCNC(=N)N)C(=O)N[C@@H](CC(C)C)C(=O)N[C@@H](CO)C(=O)N[C@@H](C)C(=O)N[C@@H](CCC(=O)O)C(=O)N[C@@H](CC(C)C)C(=O)N[C@@H](Cc1c[nH]cn1)C(=O)N[C@@H](CCC(=O)O)C(=O)N[C@@H](CC(C)C)C(=O)N[C@@H](C)C(=O)N[C@H](C(=O)N[C@@H](Cc1ccc(O)cc1)C(=O)N1CCC[C@H]1C(=O)N[C@@H](CCCNC(=N)N)C(=O)N[C@H](C(=O)N[C@@H](CCC(=O)O)C(=O)N[C@H](C(=O)NCC(=O)N[C@@H](CO)C(=O)NCC(=O)N[C@@H](CO)C(=O)N1CCC[C@H]1C(N)=O)[C@@H](C)O)[C@@H](C)O)[C@@H](C)O [compound 57, [N-terminal(C20 diacid-gGlu), 1A, 23Y, 30S, 31G]mimylin] ({C20 diacid-γGlu}-AASELSTAALGRLSAELHELATYPRTETGSGSP-NH2) |
| 0.037 nM | 0.01 nM | 0.01 nM | CC(=O)N[C@@H](C)C(=O)N[C@@H](CO)C(=O)N[C@@H](CCCCNC(=O)CC[C@H](NC(=O)CCCCCCCCCCCCCCCCCCC(=O)O)C(=O)O)C(=O)N[C@@H](CC(C)C)C(=O)N[C@@H](CO)C(=O)N[C@H](C(=O)N[C@@H](C)C(=O)N[C@@H](C)C(=O)N[C@@H](CC(C)C)C(=O)NCC(=O)N[C@@H](CCCNC(=N)N)C(=O)N[C@@H](CC(C)C)C(=O)N[C@@H](CO)C(=O)N[C@@H](C)C(=O)N[C@@H](CCC(=O)O)C(=O)N[C@@H](CC(C)C)C(=O)N[C@@H](Cc1c[nH]cn1)C(=O)N[C@@H](CCC(=O)O)C(=O)N[C@@H](CC(C)C)C(=O)N[C@@H](C)C(=O)N[C@H](C(=O)N[C@@H](CC(C)C)C(=O)N1CCC[C@H]1C(=O)N[C@@H](CCCNC(=N)N)C(=O)N[C@H](C(=O)N[C@@H](CCC(=O)O)C(=O)N[C@H](C(=O)NCC(=O)N[C@@H](CO)C(=O)NCC(=O)N[C@@H](CO)C(=O)N1CCC[C@H]1C(N)=O)[C@@H](C)O)[C@@H](C)O)[C@@H](C)O)[C@@H](C)O [compound 68, [N-terminal(acetyl), des1, 4K(C20 diacid-gGlu), 30S, 31G]mimylin] (Ac-ASK([γGlu-C20 diacid])LSTAALGRLSAELHELATLPRTETGSGSP-NH2) |
| 0.022 nM | 0.222 nM | 0.072 nM | CC(C)C[C@H](NC(=O)[C@H](CCC(=O)O)NC(=O)[C@H](C)NC(=O)[C@@H](NC(=O)[C@H](CC(C)C)NC(=O)[C@H](CCCNC(=N)N)NC(=O)CNC(=O)[C@H](CC(C)C)NC(=O)[C@@H](NC(=O)[C@H](C)NC(=O)[C@@H](NC(=O)[C@@H](NC(=O)[C@H](CC(C)C)NC(=O)[C@H](CCC(=O)O)NC(=O)[C@H](CO)NC(=O)[C@H](C)NC(=O)CC[C@H](NC(=O)CCCCCCCCCCCCCCCCC(=O)O)C(=O)O)[C@@H](C)O)[C@@H](C)O)C(C)C)[C@@H](C)O)C(=O)N[C@@H](Cc1c[nH]cn1)C(=O)N[C@@H](CCC(=O)O)C(=O)N[C@@H](CC(C)C)C(=O)N[C@@H](CCC(=O)O)C(=O)N[C@H](C(=O)N[C@@H](CC(C)C)C(=O)N1CCC[C@H]1C(=O)N[C@@H](CCCNC(=N)N)C(=O)N[C@H](C(=O)N[C@@H](CCC(=O)O)C(=O)N[C@H](C(=O)NCC(=O)N[C@H](C(=O)NCC(=O)N[C@H](C(=O)N1CCC[C@H]1C(N)=O)[C@@H](C)O)[C@@H](C)O)[C@@H](C)O)[C@@H](C)O)[C@@H](C)O [compound 105, [N-terminal(C18 diacid-gGlu), des1, 6T, 9V, 14T, 21E, 30T, 31G, 32T]mimylin] ({C18 diacid-γGlu}-ASELTTAVLGRLTAELHELETLPRTETGTGTP-NH2) |
| 0.097 nM | 0.085 nM | 0.021 nM | CC(C)C[C@H](NC(=O)[C@H](CCCNC(=N)N)NC(=O)CNC(=O)[C@H](CC(C)C)NC(=O)[C@@H](NC(=O)[C@H](C)NC(=O)[C@@H](NC(=O)[C@H](CO)NC(=O)[C@H](CC(C)C)NC(=O)[C@H](CCC(=O)O)NC(=O)[C@H](CO)NC(=O)[C@H](C)NC(=O)CC[C@H](NC(=O)CCCCCCCCCCCCCCCCCCC(=O)O)C(=O)O)[C@@H](C)O)C(C)C)C(=O)N[C@@H](CO)C(=O)N[C@@H](CCC(N)=O)C(=O)N[C@@H](CCC(=O)O)C(=O)N[C@@H](CC(C)C)C(=O)N[C@@H](Cc1c[nH]cn1)C(=O)N[C@@H](CCC(=O)O)C(=O)N[C@@H](CC(C)C)C(=O)N[C@@H](CCC(N)=O)C(=O)N[C@H](C(=O)N[C@@H](Cc1ccc(O)cc1)C(=O)N1CCC[C@H]1C(=O)N[C@@H](CCCNC(=N)N)C(=O)N[C@H](C(=O)N[C@@H](CCC(=O)O)C(=O)N[C@H](C(=O)NCC(=O)N[C@@H](CO)C(=O)NCC(=O)N[C@H](C(=O)N[C@@H](Cc1ccc(O)cc1)C(N)=O)[C@@H](C)O)[C@@H](C)O)[C@@H](C)O)[C@@H](C)O [compound 114, [N-terminal(C20 diacid-gGlu), des1, 9V, 15Q, 21Q, 23Y, 30S, 31G, 32T, 33Y]mimylin] |
